Laboratory results reported in patent US9487511B2, “Cyclopropanamine compound and use thereof” (Takeda Pharmaceutical Company Limited, priority 2014, dated 2016).
Where a name gives a salt, the structure may show the parent alone. Read-outs that look alike come from different tables or passages of the source.

Key:
human LSD1(172-833) = human LSD1(172-833) (Homo sapiens (Human), UniProt O60341); assay: Measurement of LSD1 inhibitory activity (time-resolved fluorescence, biotin-histone H3 mono methylated K4 peptide); assay type: biochemical; settings: 60 min preincubation with enzyme at room temperature;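 further: after the compound–enzyme step, substrate reaction 5 min at room temperature in Tris-HCl pH 8.0 with BSA and DTT, halted by 2-PCPA, detected with europium anti-histone H3 antibody plus Streptavidin-XL665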
Procedure: A test compound dissolved in DMSO was added by to a reaction solution (50 mM Tris-HCl (pH 8.0), 0.1% BSA, 1 mM DTT) containing LSD1 enzyme, and the mixture was reacted at room temperature for 60 min. […] After reaction at room temperature for 5 min, 2-PCPA solution was added to terminate the reaction. A detection solution (800 mM potassium fluoride, 0.1% BSA) containing europium-labeled anti-histone H3 antibody (Wako Pure Chemical Industries, Ltd.) and Streptavidin-XL665 (Cisbio) was further added, and the mixture was left standing for 60 min. […] The LSD1 inhibitory rate (%) of the test compound was calculated by the following formula. inhibitory rate (%)=(1−(test compound count−blank)÷(control−blank))×100
The count of the LSD1 enzyme reaction mixture under compound non-addition conditions is indicated as control, and the count under compound non-addition and LSD1 enzyme non-addition conditions is indicated as blank. A concentration necessary for achieving 50% inhibitory rate was taken as ICH value.

MAO-A enzyme = MAO-A enzyme (Homo sapiens (Human), UniProt P21397); assay: Measurement of MAO-A inhibitory activity (MAO-Glo Assay); assay type: biochemical
MAO-A enzyme, sequence (P21397 whole entry): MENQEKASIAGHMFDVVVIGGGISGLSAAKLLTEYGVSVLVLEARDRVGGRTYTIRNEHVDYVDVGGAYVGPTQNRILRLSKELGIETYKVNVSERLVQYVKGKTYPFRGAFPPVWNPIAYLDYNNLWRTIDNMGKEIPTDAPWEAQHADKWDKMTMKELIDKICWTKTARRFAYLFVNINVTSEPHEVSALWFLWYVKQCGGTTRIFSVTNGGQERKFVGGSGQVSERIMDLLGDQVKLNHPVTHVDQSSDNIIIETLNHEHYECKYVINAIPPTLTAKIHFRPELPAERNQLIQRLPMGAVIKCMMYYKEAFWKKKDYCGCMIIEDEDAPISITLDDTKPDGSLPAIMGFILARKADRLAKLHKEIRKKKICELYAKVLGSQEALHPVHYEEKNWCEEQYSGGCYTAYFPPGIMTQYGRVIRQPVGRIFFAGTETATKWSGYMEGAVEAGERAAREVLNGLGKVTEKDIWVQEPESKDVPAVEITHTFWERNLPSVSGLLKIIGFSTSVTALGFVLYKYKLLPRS
Procedure: The MAO-A inhibitory activity evaluation described below followed the protocol of MAO-Glo (registered trademark) Assay of Promega KK.
A test compound dissolved in DMSO was added to a reaction solution (100 mM HEPES (pH 7.5), 5% glycerol) containing MAO-A enzyme (Sigma-Aldrich Co. LLC.), and the mixture was reacted at room temperature for 15 min. MAO substrate (Promega KK) was added to start the reaction. After reaction at room temperature for 60 min, Luciferine detection reagent (Promega KK) was added to terminate the reaction. After reaction at room temperature for 20 min with stirring, the luminescence was measured by Envision (PerkinElmer). The MAO-A inhibitory rate (%) of the test compound was calculated by the following formula. inhibitory rate (%)=(1−(test compound count−blank)÷(control−blank))×100
The count of the MAO-A enzyme reaction mixture under compound non-addition conditions is indicated as control, and the count under compound non-addition and MAO-A enzyme non-addition conditions is indicated as blank.

MAO-B enzyme = MAO-B enzyme (Homo sapiens (Human), UniProt P27338); assay: Measurement of MAO-B inhibitory activity (MAO-Glo Assay); assay type: biochemical
MAO-B enzyme, sequence (P27338 whole entry): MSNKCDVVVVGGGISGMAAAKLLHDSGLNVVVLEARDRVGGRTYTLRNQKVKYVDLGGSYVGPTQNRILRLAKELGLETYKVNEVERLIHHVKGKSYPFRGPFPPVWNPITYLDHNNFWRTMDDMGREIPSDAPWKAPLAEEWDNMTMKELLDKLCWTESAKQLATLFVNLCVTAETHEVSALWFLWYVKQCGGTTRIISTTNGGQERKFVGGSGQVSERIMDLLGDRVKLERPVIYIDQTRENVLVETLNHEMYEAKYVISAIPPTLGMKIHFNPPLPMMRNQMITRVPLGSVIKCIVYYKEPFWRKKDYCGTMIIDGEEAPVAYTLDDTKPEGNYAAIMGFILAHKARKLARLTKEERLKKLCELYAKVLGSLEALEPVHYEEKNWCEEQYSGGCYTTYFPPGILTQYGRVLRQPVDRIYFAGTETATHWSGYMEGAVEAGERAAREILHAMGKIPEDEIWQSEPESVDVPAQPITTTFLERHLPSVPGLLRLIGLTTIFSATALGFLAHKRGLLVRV
Procedure: The MAO-B inhibitory activity evaluation described below followed the protocol of MAO-Glo (registered trademark) Assay of Promega KK.
A test compound dissolved in DMSO was added to a reaction solution (100 mM HEPES (pH 7.5), 5% glycerol, 10% DMSO) containing MAO-B enzyme (Sigma-Aldrich Co. LLC.), and the mixture was reacted at room temperature for 15 min. MAO substrate (Promega KK) was added to start the reaction. After reaction at room temperature for 60 min, Luciferine detection reagent (Promega KK) (50 μL) was added to terminate the reaction. After reaction at room temperature for 20 min with stirring, the luminescence was measured by Envision (PerkinElmer). The MAO-B inhibitory rate (%) of the test compound was calculated by the following formula. inhibitory rate (%)=(1−(test compound count−blank)÷(control−blank))×100
The count of the MAO-B enzyme reaction mixture under compound non-addition conditions is indicated as control, and the count under compound non-addition and MAO-B enzyme non-addition conditions is indicated as blank.

[1] = Evaluation of blood cell number in mouse; assay type: in vivo; settings: male ICR mice, oral, repeated 7 or 9 days
Procedure: All compounds were repeatedly administered to the mice at a dose of 1 mg/kg, 10 mg/kg or 100 mg/kg (body weight) for 7 or 9 days. One day after the final administration of the compound, the whole blood was collected.
Using Sysmex XT-1800i (Sysmex Corporation), the white blood cell number, red blood cell number, and platelet number in the collected whole blood per unit volume were measured. The influence of each compound on each blood cell number was determined by calculating the number with the mean of each blood cell number of the mouse without administration of the compound (0 mg/kg group), and the mean of each blood cell number in the whole blood of a mouse with the administration of the compound.

[2] = Evaluation of hippocampal distribution in mouse; assay type: in vivo; settings: male, ICR, mouse, po, 10 mg/kg, male ICR mice, 10 mg/kg oral, 1 h after administration
[3] = hippocampus, read-out: Concentration Hippocampus, Mean
[4] = plasma, read-out: Concentration Plasma, Mean

O=C(NC1CCC(F)(F)CC1)c1csc([C@@H]2C[C@H]2NCC2CCOCC2)c1 [Example 51, N-(4,4-difluorocyclohexyl)-5-((1R,2R)-2-((tetrahydro-2H-pyran-4-ylmethyl)amino)cyclopropyl)thiophene-3-carboxamide hydrochloride]
IC50 (human LSD1(172-833)): < 0.1 µM
IC50 (MAO-A enzyme): > 100 µM
IC50 (MAO-B enzyme): > 100 µM

O=C(NC1CCN(CC(F)(F)F)CC1)c1csc([C@@H]2C[C@H]2NCC2CCOCC2)c1 [Example 52, 5-((1R,2R)-2-((tetrahydro-2H-pyran-4-ylmethyl)amino)cyclopropyl)-N-(1-(2,2,2-trifluoroethyl)piperidin-4-yl)thiophene-3-carboxamide hydrochloride]
IC50 (human LSD1(172-833)): < 0.1 µM
IC50 (MAO-A enzyme): > 100 µM
IC50 (MAO-B enzyme): > 100 µM

Cc1ncc(NC(=O)c2csc([C@@H]3C[C@H]3NCC3CCOCC3)c2)s1 [Example 53, N-(2-methyl-1,3-thiazol-5-yl)-5-((1R,2R)-2-((tetrahydro-2H-pyran-4-ylmethyl)amino)cyclopropyl)thiophene-3-carboxamide dihydrochloride]
IC50 (human LSD1(172-833)): < 0.1 µM
IC50 (MAO-A enzyme): 61 µM
IC50 (MAO-B enzyme): 96 µM

Cc1nn(C)cc1NC(=O)c1csc([C@@H]2C[C@H]2NCC2CCOCC2)c1 [Example 54, N-(1,3-dimethyl-1H-pyrazol-4-yl)-5-((1R,2R)-2-((tetrahydro-2H-pyran-4-ylmethyl)amino)cyclopropyl)thiophene-3-carboxamide dihydrochloride]
IC50 (human LSD1(172-833)): < 0.1 µM
IC50 (MAO-A enzyme): > 100 µM
IC50 (MAO-B enzyme): > 100 µM

Cc1c(NC(=O)c2csc([C@@H]3C[C@H]3NCC3CCOCC3)c2)cnn1C [Example 55, N-(1,5-dimethyl-1H-pyrazol-4-yl)-5-((1R,2R)-2-((tetrahydro-2H-pyran-4-ylmethyl)amino)cyclopropyl)thiophene-3-carboxamide dihydrochloride]
IC50 (human LSD1(172-833)): < 0.1 µM
IC50 (MAO-A enzyme): > 100 µM
IC50 (MAO-B enzyme): > 100 µM

O=C(NC1CC1)c1csc([C@@H]2C[C@H]2NCC2CCOCC2)c1 [Example 56, N-cyclopropyl-5-((1R,2R)-2-((tetrahydro-2H-pyran-4-ylmethyl)amino)cyclopropyl)thiophene-3-carboxamide hydrochloride]
IC50 (human LSD1(172-833)): < 0.1 µM
IC50 (MAO-A enzyme): > 100 µM
IC50 (MAO-B enzyme): > 100 µM

Cc1nnc(NC(=O)c2csc([C@@H]3C[C@H]3NCC3CCN(CCC(=O)O)CC3)c2)s1 [Example 60, 3-(4-((((1R,2R)-2-(4-((5-methyl-1,3,4-thiadiazol-2-yl)carbamoyl)-2-thienyl)cyclopropyl)amino)methyl)piperidin-1-yl)propanoic acid trihydrochloride]
IC50 (human LSD1(172-833)): < 0.1 µM
IC50 (MAO-A enzyme): > 100 µM
IC50 (MAO-B enzyme): > 100 µM

O=C(NC1CCOCC1)c1csc([C@@H]2C[C@H]2NCC2CC2)c1 [Example 71, 5-((1R,2R)-2-((cyclopropylmethyl)amino)cyclopropyl)-N-(tetrahydro-2H-pyran-4-yl)thiophene-3-carboxamide hydrochloride]
Platelets, Mean ([1]; 1 mg/kg): 1178 10^3 cells
Red blood cells, Mean ([1]; 1 mg/kg): 873 10^4 cells
White blood cells, Mean ([1]; 1 mg/kg): 275 10 cells
Platelets, Mean ([1]; 10 mg/kg): 1197 10^3 cells
Red blood cells, Mean ([1]; 10 mg/kg): 817 10^4 cells
White blood cells, Mean ([1]; 10 mg/kg): 276 10 cells
Platelets, Mean ([1]; 100 mg/kg): 1322 10^3 cells
Red blood cells, Mean ([1]; 100 mg/kg): 853 10^4 cells
White blood cells, Mean ([1]; 100 mg/kg): 323 10 cells
concentration at 1 h [2, 3]: 82 ng/g
concentration at 1 h [2, 4]: 229 ng/mL

Cc1nnc(NC(=O)c2cc([C@H]3C[C@@H]3NCC3CCOCC3)cs2)s1 [Example 74, N-(5-methyl-1,3,4-thiadiazol-2-yl)-4-((1R,2S)-2-((tetrahydro-2H-pyran-4-ylmethyl)amino)cyclopropyl)thiophene-2-carboxamide hydrochloride]
IC50 (human LSD1(172-833)): < 0.1 µM
IC50 (MAO-A enzyme): > 100 µM
IC50 (MAO-B enzyme): > 100 µM

O=C(NC1CCC(F)(F)CC1)c1csc([C@@H]2C[C@H]2NC2CCN(C3CC3)CC2)c1 [Example 80, 5-((1R,2R)-2-((1-cyclopropylpiperidin-4-yl)amino)cyclopropyl)-N-(4,4-difluorocyclohexyl)thiophene-3-carboxamide hydrochloride]
IC50 (human LSD1(172-833)): < 0.1 µM
IC50 (MAO-A enzyme): > 100 µM
IC50 (MAO-B enzyme): > 100 µM

Cc1cc(NC(=O)c2csc([C@@H]3C[C@H]3NCC3CCOCC3)c2)no1 [Example 81, N-(5-methyl-1,2-oxazol-3-yl)-5-((1R,2R)-2-((tetrahydro-2H-pyran-4-ylmethyl)amino)cyclopropyl)thiophene-3-carboxamide hydrochloride]
IC50 (human LSD1(172-833)): < 0.1 µM
IC50 (MAO-A enzyme): 36 µM
IC50 (MAO-B enzyme): > 100 µM

Cc1nnc(NC(=O)c2cc([C@@H]3C[C@H]3NCC3CC3)cs2)s1 [Example 82, 4-((1S,2R)-2-((cyclopropylmethyl)amino)cyclopropyl)-N-(5-methyl-1,3,4-thiadiazol-2-yl)thiophene-2-carboxamide dihydrochloride]
Platelets, Mean ([1]; 1 mg/kg): 1399 10^3 cells
Red blood cells, Mean ([1]; 1 mg/kg): 899 10^4 cells
White blood cells, Mean ([1]; 1 mg/kg): 403 10 cells
Platelets, Mean ([1]; 10 mg/kg): 1445 10^3 cells
Red blood cells, Mean ([1]; 10 mg/kg): 926 10^4 cells
White blood cells, Mean ([1]; 10 mg/kg): 424 10 cells
Platelets, Mean ([1]; 100 mg/kg): 1411 10^3 cells
Red blood cells, Mean ([1]; 100 mg/kg): 903 10^4 cells
White blood cells, Mean ([1]; 100 mg/kg): 329 10 cells
concentration at 1 h [2, 3]: 170 ng/g
concentration at 1 h [2, 4]: 1330 ng/mL

Cc1nnc(NC(=O)c2cc([C@@H]3C[C@H]3NC3CCC3)cs2)s1 [Example 84, 4-((1S,2R)-2-(cyclobutylamino)cyclopropyl)-N-(5-methyl-1,3,4-thiadiazol-2-yl)thiophene-2-carboxamide dihydrochloride]
Platelets, Mean ([1]; 1 mg/kg, dihydrochloride): 1533 10^3 cells
Red blood cells, Mean ([1]; 1 mg/kg, dihydrochloride): 910 10^4 cells
White blood cells, Mean ([1]; 1 mg/kg, dihydrochloride): 370 10 cells
Platelets, Mean ([1]; 10 mg/kg, dihydrochloride): 1627 10^3 cells
Red blood cells, Mean ([1]; 10 mg/kg, dihydrochloride): 880 10^4 cells
White blood cells, Mean ([1]; 10 mg/kg, dihydrochloride): 339 10 cells
Platelets, Mean ([1]; 100 mg/kg, dihydrochloride): 1665 10^3 cells
Red blood cells, Mean ([1]; 100 mg/kg, dihydrochloride): 900 10^4 cells
White blood cells, Mean ([1]; 100 mg/kg, dihydrochloride): 313 10 cells
concentration at 1 h [2, 3]: 177 ng/g
Kp at 1 h ([2]; hippocampus/plasma, read-out: Ratio (hippocampus/plasma), Mean): 0.339
concentration at 1 h [2, 4]: 523 ng/mL

CCn1cc(NC(=O)c2csc([C@@H]3C[C@H]3NCC3CCOCC3)c2)cn1 [Example 86, N-(1-ethyl-1H-pyrazol-4-yl)-5-((1R,2R)-2-((tetrahydro-2H-pyran-4-ylmethyl)amino)cyclopropyl)thiophene-3-carboxamide dihydrochloride]
IC50 (human LSD1(172-833)): < 0.1 µM
IC50 (MAO-A enzyme): 87 µM
IC50 (MAO-B enzyme): > 100 µM

CC(=O)N1CCC(N[C@@H]2C[C@H]2c2cc(C(=O)NC3CCC(F)(F)CC3)cs2)CC1 [Example 91, 5-((1R,2R)-2-((1-acetylpiperidin-4-yl)amino)cyclopropyl)-N-(4,4-difluorocyclohexyl)thiophene-3-carboxamide hydrochloride]
IC50 (human LSD1(172-833)): < 0.1 µM
IC50 (MAO-A enzyme): > 100 µM
IC50 (MAO-B enzyme): > 100 µM

O=C(NC1CCC(F)(F)CC1)c1csc([C@@H]2C[C@H]2NC2CCN(C(=O)C3CC3)CC2)c1 [Example 92, 5-((1R,2R)-2-((1-(cyclopropylcarbonyl)piperidin-4-yl)amino)cyclopropyl)-N-(4,4-difluorocyclohexyl)thiophene-3-carboxamide hydrochloride]
IC50 (human LSD1(172-833)): < 0.1 µM
IC50 (MAO-A enzyme): > 100 µM
IC50 (MAO-B enzyme): > 100 µM

Cc1nnc(NC(=O)c2cc([C@@H]3C[C@H]3NCC3CCOCC3)c(C)s2)s1 [Example 97, 5-methyl-N-(5-methyl-1,3,4-thiadiazol-2-yl)-4-((1S,2R)-2-((tetrahydro-2H-pyran-4-ylmethyl)amino)cyclopropyl)thiophene-2-carboxamide hydrochloride]
Platelets, Mean ([1]; 1 mg/kg): 1462 10^3 cells
Red blood cells, Mean ([1]; 1 mg/kg): 902 10^4 cells
White blood cells, Mean ([1]; 1 mg/kg): 377 10 cells
Platelets, Mean ([1]; 10 mg/kg): 1483 10^3 cells
Red blood cells, Mean ([1]; 10 mg/kg): 890 10^4 cells
White blood cells, Mean ([1]; 10 mg/kg): 366 10 cells
Platelets, Mean ([1]; 100 mg/kg): 1533 10^3 cells
Red blood cells, Mean ([1]; 100 mg/kg): 929 10^4 cells
White blood cells, Mean ([1]; 100 mg/kg): 332 10 cells
concentration at 1 h [2, 3]: 194 ng/g
concentration at 1 h [2, 4]: 978 ng/mL

O=C(O)c1ccc(CN2CCC(CN[C@@H]3C[C@H]3c3cc(C(=O)NC4CCC(F)(F)CC4)cs3)CC2)cc1 [Example 101, 4-((4-((((1R,2R)-2-(4-((4,4-difluorocyclohexyl)carbamoyl)-2-thienyl)cyclopropyl)amino)methyl)piperidin-1-yl)methyl)benzoic acid dihydrochloride]
IC50 (human LSD1(172-833)): < 0.1 µM
IC50 (MAO-A enzyme): > 100 µM
IC50 (MAO-B enzyme): > 100 µM

O=C(O)c1ccc(CN[C@@H]2C[C@H]2c2cc(C(=O)NC3CCC(F)(F)CC3)cs2)cc1 [Example 110, 4-((((1R,2R)-2-(4-((4,4-difluorocyclohexyl)carbamoyl)-2-thienyl)cyclopropyl)amino)methyl)benzoic acid]
IC50 (human LSD1(172-833)): < 0.1 µM
IC50 (MAO-A enzyme): 49 µM
IC50 (MAO-B enzyme): > 100 µM

O=C(NC1CCOCC1)c1csc([C@@H]2C[C@H]2NCC2CCC2)c1 [Example 112, 5-((1R,2R)-2-((cyclobutylmethyl)amino)cyclopropyl)-N-(tetrahydro-2H-pyran-4-yl)thiophene-3-carboxamide]
IC50 (human LSD1(172-833)): < 0.1 µM
IC50 (MAO-A enzyme): > 100 µM
IC50 (MAO-B enzyme): > 100 µM
